Data: the supplement of paper PMC10307832

Legend:
Assay in all cases: relative viability (nuclei count vs DMSO), 5 days (fraction); higher = more cells survive
NCI-H2087 = system: NCI-H2087
In short: (§1)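 Relative viability divides the nuclei count in treated wells by that in vehicle wells. Lung cancer cell lines were seeded in 1536-well plates, dosed by pin tool the next day, and fixed and stained after 5 days in one step with final 0.05% Triton X-100, 1% formaldehyde and 1 ug/ml Hoechst. Dosing was a single drug or a fixed anchor-drug dose plus five library-drug doses (not always all listed) in √10 steps, and values are medians of duplicate plates imaged at 4×.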

NCI-H1793 = system: NCI-H1793
In short: as §1

PC-3 [JPC-3] = system: PC-3 [JPC-3]
In short: as §1

NCI-H2170 = system: NCI-H2170
In short: as §1

NCI-H1651 = system: NCI-H1651
In short: as §1

HCC-366 = system: HCC-366
In short: as §1

NCI-H1395 = system: NCI-H1395
In short: as §1

NCI-H2405 = system: NCI-H2405
In short: as §1

ChaGo-K-1 = system: ChaGo-K-1
In short: as §1

NCI-H2228 = system: NCI-H2228
In short: as §1

LU99A = system: LU99A
In short: as §1

HCC-78 = system: HCC-78
In short: as §1

LOU-NH91 = system: LOU-NH91
In short: as §1

NCI-H3122 = system: NCI-H3122
In short: as §1

NCI-H1944 = system: NCI-H1944
In short: as §1

UMC-11 = system: UMC-11
In short: as §1

CAL-12T = system: CAL-12T
In short: as §1

RERF-LC-KJ = system: RERF-LC-KJ
In short: as §1

NCI-H460 = system: NCI-H460
In short: as §1

LC-2-ad = system: LC-2-ad
In short: as §1

NCI-H1755 = system: NCI-H1755
In short: as §1

SMILES: O=c1cc(N2CCOCC2)oc2c(-c3cccc4c3sc3ccccc34)cccc12 + CC(=O)Nc1cccc(-n2c(=O)n(C3CC3)c(=O)c3c(Nc4ccc(I)cc4F)n(C)c(=O)c(C)c32)c1 [Trametinib] (partner 0.02 µM)
- relative viability (NCI-H2087; first compound 0.01 µM): 0.225
- relative viability (NCI-H2087; first compound 0.03162 µM): 0.195
- relative viability (NCI-H2087; first compound 0.1 µM): 0.231
- relative viability (NCI-H2087; first compound 0.3162 µM): 0.188
- relative viability (NCI-H2087; first compound 1 µM): 0.214
- relative viability (NCI-H1793; first compound 0.01 µM): 0.372
- relative viability (NCI-H1793; first compound 0.03162 µM): 0.411
- relative viability (NCI-H1793; first compound 0.1 µM): 0.504
- relative viability (NCI-H1793; first compound 0.3162 µM): 0.406
- relative viability (NCI-H1793; first compound 1 µM): 0.38
- relative viability (PC-3 [JPC-3]; first compound 0.01 µM): 0.623
- relative viability (PC-3 [JPC-3]; first compound 0.03162 µM): 0.675
- relative viability (PC-3 [JPC-3]; first compound 0.1 µM): 0.649
- relative viability (PC-3 [JPC-3]; first compound 0.3162 µM): 0.729
- relative viability (PC-3 [JPC-3]; first compound 1 µM): 0.655
- relative viability (NCI-H2170; first compound 0.01 µM): 0.895
- relative viability (NCI-H2170; first compound 0.03162 µM): 0.897
- relative viability (NCI-H2170; first compound 0.1 µM): 0.982
- relative viability (NCI-H2170; first compound 0.3162 µM): 0.801
- relative viability (NCI-H2170; first compound 1 µM): 0.889
- relative viability (NCI-H1651; first compound 0.01 µM): 0.816
- relative viability (NCI-H1651; first compound 0.03162 µM): 0.818
- relative viability (NCI-H1651; first compound 0.1 µM): 0.817
- relative viability (NCI-H1651; first compound 0.3162 µM): 0.819
- relative viability (NCI-H1651; first compound 1 µM): 0.871
- relative viability (HCC-366; first compound 0.01 µM): 0.411
- relative viability (HCC-366; first compound 0.03162 µM): 0.355
- relative viability (HCC-366; first compound 0.1 µM): 0.36
- relative viability (HCC-366; first compound 0.3162 µM): 0.333
- relative viability (HCC-366; first compound 1 µM): 0.322
- relative viability (NCI-H1395; first compound 0.03162 µM): 1.1
- relative viability (NCI-H1395; first compound 0.1 µM): 1.02
- relative viability (NCI-H1395; first compound 0.3162 µM): 1.07
- relative viability (NCI-H1395; first compound 1 µM): 1.01
- relative viability (NCI-H2405; first compound 0.01 µM): 0.751
- relative viability (NCI-H2405; first compound 0.03162 µM): 0.664
- relative viability (NCI-H2405; first compound 0.1 µM): 0.631
- relative viability (NCI-H2405; first compound 0.3162 µM): 0.686
- relative viability (NCI-H2405; first compound 1 µM): 0.665
- relative viability (ChaGo-K-1; first compound 0.01 µM): 0.845
- relative viability (ChaGo-K-1; first compound 0.03162 µM): 0.958
- relative viability (ChaGo-K-1; first compound 0.1 µM): 0.966
- relative viability (ChaGo-K-1; first compound 0.3162 µM): 0.893
- relative viability (ChaGo-K-1; first compound 1 µM): 0.882
- relative viability (NCI-H2228; first compound 0.01 µM): 0.723
- relative viability (NCI-H2228; first compound 0.03162 µM): 0.424
- relative viability (NCI-H2228; first compound 0.1 µM): 0.43
- relative viability (NCI-H2228; first compound 0.3162 µM): 0.557
- relative viability (NCI-H2228; first compound 1 µM): 0.534
- relative viability (LU99A; first compound 0.01 µM): 0.561
- relative viability (LU99A; first compound 0.03162 µM): 0.576
- relative viability (LU99A; first compound 0.1 µM): 0.562
- relative viability (LU99A; first compound 0.3162 µM): 0.501
- relative viability (LU99A; first compound 1 µM): 0.541
- relative viability (HCC-78; first compound 0.01 µM): 0.801
- relative viability (HCC-78; first compound 0.03162 µM): 0.699
- relative viability (HCC-78; first compound 0.1 µM): 0.899
- relative viability (HCC-78; first compound 0.3162 µM): 0.806
- relative viability (HCC-78; first compound 1 µM): 0.651
- relative viability (LOU-NH91; first compound 0.01 µM): 0.801
- relative viability (LOU-NH91; first compound 0.03162 µM): 0.798
- relative viability (LOU-NH91; first compound 0.1 µM): 0.782
- relative viability (LOU-NH91; first compound 0.3162 µM): 0.821
- relative viability (LOU-NH91; first compound 1 µM): 0.767
- relative viability (NCI-H3122; first compound 0.01 µM): 0.217
- relative viability (NCI-H3122; first compound 0.03162 µM): 0.225
- relative viability (NCI-H3122; first compound 0.1 µM): 0.245
- relative viability (NCI-H3122; first compound 0.3162 µM): 0.216
- relative viability (NCI-H3122; first compound 1 µM): 0.202
- relative viability (NCI-H1944; first compound 0.01 µM): 0.448
- relative viability (NCI-H1944; first compound 0.03162 µM): 0.403
- relative viability (NCI-H1944; first compound 0.1 µM): 0.396
- relative viability (NCI-H1944; first compound 0.3162 µM): 0.411
- relative viability (NCI-H1944; first compound 1 µM): 0.363
- relative viability (UMC-11; first compound 0.01 µM): 0.734
- relative viability (UMC-11; first compound 0.03162 µM): 0.741
- relative viability (UMC-11; first compound 0.1 µM): 0.773
- relative viability (UMC-11; first compound 0.3162 µM): 0.756
- relative viability (UMC-11; first compound 1 µM): 0.832
- relative viability (CAL-12T; first compound 0.01 µM): 0.334
- relative viability (CAL-12T; first compound 0.03162 µM): 0.417
- relative viability (CAL-12T; first compound 0.1 µM): 0.354
- relative viability (CAL-12T; first compound 0.3162 µM): 0.381
- relative viability (CAL-12T; first compound 1 µM): 0.363
- relative viability (RERF-LC-KJ; first compound 0.01 µM): 0.824
- relative viability (RERF-LC-KJ; first compound 0.03162 µM): 0.874
- relative viability (RERF-LC-KJ; first compound 0.1 µM): 0.936
- relative viability (RERF-LC-KJ; first compound 0.3162 µM): 0.836
- relative viability (RERF-LC-KJ; first compound 1 µM): 0.798
- relative viability (NCI-H460; first compound 0.01 µM): 0.104
- relative viability (NCI-H460; first compound 0.03162 µM): 0.127
- relative viability (NCI-H460; first compound 0.1 µM): 0.185
- relative viability (NCI-H460; first compound 0.3162 µM): 0.197
- relative viability (NCI-H460; first compound 1 µM): 0.12
- relative viability (LC-2-ad; first compound 0.01 µM): 0.982
- relative viability (LC-2-ad; first compound 0.03162 µM): 0.877
- relative viability (LC-2-ad; first compound 0.1 µM): 0.965
- relative viability (LC-2-ad; first compound 0.3162 µM): 0.899
- relative viability (LC-2-ad; first compound 1 µM): 0.918
- relative viability (NCI-H1755; first compound 0.01 µM): 0.807
- relative viability (NCI-H1755; first compound 0.03162 µM): 0.83
- relative viability (NCI-H1755; first compound 0.1 µM): 0.81
- relative viability (NCI-H1755; first compound 0.3162 µM): 0.741
- relative viability (NCI-H1755; first compound 1 µM): 0.819
